# Laboratory results from the supplement of paper PMC10307832.
# Experiments:
# Assay in all cases: relative viability (nuclei count vs DMSO), 5 days (fraction); higher = more cells survive
# Mirin + Trametinib = compound: N=C1NC(=O)/C(=C/c2ccc(O)cc2)S1 [Mirin] + CC(=O)Nc1cccc(-n2c(=O)n(C3CC3)c(=O)c3c(Nc4ccc(I)cc4F)n(C)c(=O)c(C)c32)c1 [Trametinib] (partner 0.02 µM)
# In short: (§1)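 Relative viability divides the nuclei count in treated wells by that in vehicle wells. Lung cancer cell lines were seeded in 1536-well plates, dosed by pin tool the next day, and fixed and stained after 5 days in one step with final 0.05% Triton X-100, 1% formaldehyde and 1 ug/ml Hoechst. Dosing was a single drug or a fixed anchor-drug dose plus five library-drug doses (not always all listed) in √10 steps, and values are medians of duplicate plates imaged at 4×.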
# [1] = compound: CCn1c(-c2nonc2N)nc2cnc(Oc3cccc(NC(=O)c4ccc(OCCN5CCOCC5)cc4)c3)cc21 + CS(=O)(=O)N1CCN(Cc2cc3nc(-c4cccc5[nH]ncc45)nc(N4CCOCC4)c3s2)CC1 [Pictilisib] (partner 1 µM)
# In short: as §1
# [2] = compound: CCn1c(-c2nonc2N)nc2cnc(Oc3cccc(NC(=O)c4ccc(OCCN5CCOCC5)cc4)c3)cc21 + CCNC(=O)c1noc(-c2cc(C(C)C)c(O)cc2O)c1-c1ccc(CN2CCOCC2)cc1 [Luminespib] (partner 0.01 µM)
# In short: as §1
# Mirin + Luminespib = compound: N=C1NC(=O)/C(=C/c2ccc(O)cc2)S1 [Mirin] + CCNC(=O)c1noc(-c2cc(C(C)C)c(O)cc2O)c1-c1ccc(CN2CCOCC2)cc1 [Luminespib] (partner 0.01 µM)
# In short: as §1
cell line,measurement,setting,value
UMC-11,relative viability,Mirin + Trametinib; first compound 0.25 µM,0.721
same,relative viability,Mirin + Trametinib; first compound 0.7906 µM,0.381
same,relative viability,Mirin + Trametinib; first compound 2.5 µM,0.778
same,relative viability,Mirin + Trametinib; first compound 7.906 µM,0.558
same,relative viability,Mirin + Trametinib; first compound 25 µM,0.496
same,relative viability,[1]; first compound 0.04 µM,0.908
same,relative viability,[1]; first compound 0.1265 µM,0.751
same,relative viability,[1]; first compound 0.4 µM,0.464
same,relative viability,[1]; first compound 1.265 µM,0.241
same,relative viability,[1]; first compound 4 µM,0.188
same,relative viability,[2]; first compound 0.04 µM,1.03
same,relative viability,[2]; first compound 0.1265 µM,0.915
same,relative viability,[2]; first compound 0.4 µM,0.83
same,relative viability,[2]; first compound 1.265 µM,0.291
same,relative viability,[2]; first compound 4 µM,0.222
same,relative viability,Mirin + Luminespib; first compound 0.25 µM,1.09
same,relative viability,Mirin + Luminespib; first compound 0.7906 µM,0.983
same,relative viability,Mirin + Luminespib; first compound 2.5 µM,1.01
same,relative viability,Mirin + Luminespib; first compound 7.906 µM,0.826
same,relative viability,Mirin + Luminespib; first compound 25 µM,0.695
